# Biological target: T1, AKT1 (Homo sapiens, UniProt P31749)
# T1 construct: purchased Upstate 14-276
# Test: HTS ATP-utilizing enzyme assay, off-chip mobility-shift (Caliper HTS 250)
# Format: biochemical
# Conditions: kinase named = inhibitory activity/selectivity; test compound 10 μM; active = greater than three-sigma from mean
# From the text: The following procedures describe the reagent and plate preparation for a HTS of an ATP-utilizing enzyme, such as a protein kinase, run in an off-chip mobility-shift assay format. The following provides an HTS protocol for running a protein kinase HTS screen on a Caliper HTS 250 microfluidics system. The following parameters are dependent on the protein kinase used and can be determined by one skilled in the art as part of a typical assay development process. For example, the peptide substrate used can be identified from the current literature, by screening a peptide library of potential protein kinase substrates, or by other applicable means accepted in the field.
# The following table provides typical screen assay parameters appropriate for a Caliper HTS 250 microfluidics system used to assay AKT1. Parameters used to assay other protein kinases can be determined by one skilled in the art.
# Assays to determine the kinase inhibitory activity of chemical entities of the present disclosure were performed using a Caliper HTS 250 microfluidics device, Greiner U-bottom assay plates, a Multidrop for transfer of reagents, and Biomek FX (AMNCBM03) software. Initially, 2.4 μL of a 1 mM solution of a test compound in 100% DMSO was added to a well of the Greiner U-bottom plate. A single Greiner U-bottom plate having 24×16 wells could include multiple test compounds. […] Using the Biomek FX, 10 μL of 0.5 M EDTA was added by the span-8 to wells, indicated as 100% Control and 2.4 μL of 100% DMSO was added by the span-8 to wells, indicated as 0% Control. […] The total reaction volume in each well was 25 μL, and the concentration of the test compound was 10 μM. The assay plate was incubated for 2.5 hrs at 20° C. to 22° C. […] The inhibition of the ATP-utilizing enzyme, such as a particular protein kinase, was determined by measuring the ratio of the peptide substrate to phosphorylated product for each well of the assay plate using the Caliper HTS 250 system.
# The use of three-sigma statistical limits represents a conservative method for declaring potential hits among targets. The three-sigma activity, as well as the mean population activity, can be different for each target enzyme.
# Each chemical entity listed in Table 2 was tested for protein kinase inhibitory activity according to the biological assays and definitions of protein kinase inhibitory activity as described herein.
# T1 sequence (P31749 whole entry): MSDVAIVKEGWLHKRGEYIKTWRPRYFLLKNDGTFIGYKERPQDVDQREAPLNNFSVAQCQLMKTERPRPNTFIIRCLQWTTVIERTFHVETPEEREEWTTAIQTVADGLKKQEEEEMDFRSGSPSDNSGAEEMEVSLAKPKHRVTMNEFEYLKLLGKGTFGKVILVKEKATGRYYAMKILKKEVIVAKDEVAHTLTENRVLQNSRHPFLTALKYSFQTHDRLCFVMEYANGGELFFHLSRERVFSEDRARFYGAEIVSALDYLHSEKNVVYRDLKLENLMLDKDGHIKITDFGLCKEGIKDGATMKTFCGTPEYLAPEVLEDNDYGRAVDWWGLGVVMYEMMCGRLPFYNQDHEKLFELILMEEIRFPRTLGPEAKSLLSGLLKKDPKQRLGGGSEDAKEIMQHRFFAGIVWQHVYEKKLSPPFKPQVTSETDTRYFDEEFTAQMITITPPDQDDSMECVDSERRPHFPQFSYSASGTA
row,Activity,SMILES
1,AKT1,"O=C(CCN(C(=O)c1cccs1)c1nc(-c2cc3ccccc3o2)cs1)NCC1COCCO1 (stereo not drawn) [N-(3-((1,4-dioxan-2-yl)methylamino)-3-oxopropyl)-N-(4-(benzofuran-2-yl)thiazol-2-yl)thiophene-2-carboxamide]"
2,AKT1,"Cc1cc(C(=O)NCCCN(C(=O)c2cccs2)c2nc(-c3cc4ccccc4o3)cs2)nn1C [N-(3-(N-(4-(benzofuran-2-yl)thiazol-2-yl)thiophene-2-carboxamido)propyl)-1,5-dimethyl-1H-pyrazole-3-carboxamide]"
3,AKT1,O=C(NCCCN(C(=O)c1cccs1)c1nc(-c2cc3ccccc3o2)cs1)c1ccncc1 [N-(3-(N-(4-(benzofuran-2-yl)thiazol-2-yl)thiophene-2-carboxamido)propyl)isonicotinamide]
4,AKT1,"COc1ccc(OC)c(-c2csc(N(CCCN3CCCCCC3)C(=O)c3ccccc3)n2)c1 [N-(3-(azepan-1-yl)propyl)-N-(4-(2,5-dimethoxyphenyl)thiazol-2-yl)benzamide]"
5,AKT1,"COc1ccc(OC)c(-c2csc(N(CCCN3CCCCCC3)C(=O)c3ccco3)n2)c1 [N-(3-(azepan-1-yl)propyl)-N-(4-(2,5-dimethoxyphenyl)thiazol-2-yl)furan-2-carboxamide]"
6,AKT1,"COc1ccc(OC)c(-c2csc(N(CCCN3CCCCCC3)C(=O)c3cccs3)n2)c1 [N-(3-(azepan-1-yl)propyl)-N-(4-(2,5-dimethoxyphenyl)thiazol-2-yl)thiophene-2-carboxamide]"
7,AKT1,COc1ccc(-c2csc(N(CCCN3CCCCCC3)C(=O)c3ccccc3)n2)cc1 [N-(3-(azepan-1-yl)propyl)-N-(4-(4-methoxyphenyl)thiazol-2-yl)benzamide]
8,AKT1,COc1ccc(-c2csc(N(CCCN3CCCCCC3)C(=O)c3ccco3)n2)cc1 [N-(3-(azepan-1-yl)propyl)-N-(4-(4-methoxyphenyl)thiazol-2-yl)furan-2-carboxamide]
9,AKT1,COc1ccc(-c2csc(N(CCCN3CCCCCC3)C(=O)c3cccs3)n2)cc1 [N-(3-(azepan-1-yl)propyl)-N-(4-(4-methoxyphenyl)thiazol-2-yl)thiophene-2-carboxamide]
10,AKT1,O=C(c1ccccc1)N(CCCN1CCCCCC1)c1nc(-c2ccccc2)cs1 [N-(3-(azepan-1-yl)propyl)-N-(4-phenylthiazol-2-yl)benzamide]
11,AKT1,O=C(c1ccco1)N(CCCN1CCCCCC1)c1nc(-c2ccccc2)cs1 [N-(3-(azepan-1-yl)propyl)-N-(4-phenylthiazol-2-yl)furan-2-carboxamide]
12,AKT1,O=C(c1cccs1)N(CCCN1CCCCCC1)c1nc(-c2ccccc2)cs1 [N-(3-(azepan-1-yl)propyl)-N-(4-phenylthiazol-2-yl)thiophene-2-carboxamide]
13,AKT1,"CCN(CC)CCCN(C(=O)c1ccccc1)c1nc(-c2cc(OC)ccc2OC)cs1 [N-(3-(diethylamino)propyl)-N-(4-(2,5-dimethoxyphenyl)thiazol-2-yl)benzamide]"
14,AKT1,"CCN(CC)CCCN(C(=O)c1ccco1)c1nc(-c2cc(OC)ccc2OC)cs1 [N-(3-(diethylamino)propyl)-N-(4-(2,5-dimethoxyphenyl)thiazol-2-yl)furan-2-carboxamide]"
15,AKT1,"CCN(CC)CCCN(C(=O)c1cccs1)c1nc(-c2cc(OC)ccc2OC)cs1 [N-(3-(diethylamino)propyl)-N-(4-(2,5-dimethoxyphenyl)thiazol-2-yl)thiophene-2-carboxamide]"
16,AKT1,"CCN(CC)CCCN(C(=O)c1cccs1)c1nc(-c2ccc(OC)c(OC)c2)cs1 [N-(3-(diethylamino)propyl)-N-(4-(3,4-dimethoxyphenyl)thiazol-2-yl)thiophene-2-carboxamide]"
17,AKT1,CCN(CC)CCCN(C(=O)c1ccccc1)c1nc(-c2ccc(OC)cc2)cs1 [N-(3-(diethylamino)propyl)-N-(4-(4-methoxyphenyl)thiazol-2-yl)benzamide]
18,AKT1,CCN(CC)CCCN(C(=O)c1ccco1)c1nc(-c2ccccc2)cs1 [N-(3-(diethylamino)propyl)-N-(4-phenylthiazol-2-yl)furan-2-carboxamide]

row,Activity,SMILES
1,AKT1,CCN(CC)CCCN(C(=O)c1cccs1)c1nc(-c2ccccc2)cs1 [N-(3-(diethylamino)propyl)-N-(4-phenylthiazol-2-yl)thiophene-2-carboxamide]
2,AKT1,CS(=O)(=O)Nc1cccc(NC(=O)c2csc(N(CCCN3CCOCC3)C(=O)c3cccs3)n2)c1 [N-(3-(methylsulfonamido)phenyl)-2-(N-(3-morpholinopropyl)thiophene-2-carboxamido)thiazole-4-carboxamide]
3,AKT1,CC(=O)NCCCN(C(=O)c1cccs1)c1nc(-c2cc3ccccc3o2)cs1 [N-(3-acetamidopropyl)-N-(4-(benzofuran-2-yl)thiazol-2-yl)thiophene-2-carboxamide]
4,AKT1,NC(=O)c1cccc(NC(=O)c2csc(N(CCCN3CCOCC3)C(=O)c3cccs3)n2)c1 [N-(3-carbamoylphenyl)-2-(N-(3-morpholinopropyl)thiophene-2-carboxamido)thiazole-4-carboxamide]
5,AKT1,O=C(NCc1cccc(Cl)c1)c1csc(N(CCCN2CCOCC2)C(=O)c2cccs2)n1 [N-(3-chlorobenzyl)-2-(N-(3-morpholinopropyl)thiophene-2-carboxamido)thiazole-4-carboxamide]
6,AKT1,COc1cccc(CNC(=O)c2csc(N(CCCN3CCOCC3)C(=O)c3cccs3)n2)c1 [N-(3-methoxybenzyl)-2-(N-(3-morpholinopropyl)thiophene-2-carboxamido)thiazole-4-carboxamide]
7,AKT1,COc1cccc(NC(=O)c2csc(N(CCCN3CCOCC3)C(=O)c3cccs3)n2)c1 [N-(3-methoxyphenyl)-2-(N-(3-morpholinopropyl)thiophene-2-carboxamido)thiazole-4-carboxamide]
8,AKT1,O=C(c1cccs1)N(CCCN1CCOCC1)c1nc(-c2ccccc2C(F)(F)F)cs1 [N-(3-morpholinopropyl)-N-(4-(2-(trifluoromethyl)phenyl)thiazol-2-yl)thiophene-2-carboxamide]
9,AKT1,O=C(c1cccs1)N(CCCN1CCOCC1)c1nc(-c2ccccc2[N+](=O)[O-])cs1 [N-(3-morpholinopropyl)-N-(4-(2-nitrophenyl)thiazol-2-yl)thiophene-2-carboxamide]
10,AKT1,O=C(c1cccs1)N(CCCN1CCOCC1)c1nc(-c2cccc(C(F)(F)F)c2)cs1 [N-(3-morpholinopropyl)-N-(4-(3-(trifluoromethyl)phenyl)thiazol-2-yl)thiophene-2-carboxamide]
11,AKT1,"O=C1COc2ccc(-c3csc(N(CCCN4CCOCC4)C(=O)c4cccs4)n3)cc2N1 [N-(3-morpholinopropyl)-N-(4-(3-oxo-3,4-dihydro-2H-benzo[b][1,4]oxazin-6-yl)thiazol-2-yl)thiophene-2-carboxamide]"
12,AKT1,O=C(c1ccco1)N(CCCN1CCOCC1)c1nc(-c2cc(-c3ccccc3)no2)cs1 [N-(3-morpholinopropyl)-N-(4-(3-phenylisoxazol-5-yl)thiazol-2-yl)furan-2-carboxamide]
13,AKT1,O=C(c1cccs1)N(CCCN1CCOCC1)c1nc(-c2cc(-c3ccccc3)no2)cs1 [N-(3-morpholinopropyl)-N-(4-(3-phenylisoxazol-5-yl)thiazol-2-yl)thiophene-2-carboxamide]
14,AKT1,O=C(c1cccs1)N(CCCN1CCOCC1)c1nc(-c2ccc(N3CCCC3)cc2)cs1 [N-(3-morpholinopropyl)-N-(4-(4-(pyrrolidin-1-yl)phenyl)thiazol-2-yl)thiophene-2-carboxamide]
15,AKT1,O=C(c1cccs1)N(CCCN1CCOCC1)c1nc(-c2ccc(OC(F)(F)F)cc2)cs1 [N-(3-morpholinopropyl)-N-(4-(4-(trifluoromethoxy)phenyl)thiazol-2-yl)thiophene-2-carboxamide]
16,AKT1,CCCCCc1ccc(-c2csc(N(CCCN3CCOCC3)C(=O)c3cccs3)n2)cc1 [N-(3-morpholinopropyl)-N-(4-(4-pentylphenyl)thiazol-2-yl)thiophene-2-carboxamide]
17,AKT1,O=C(c1cccs1)N(CCCN1CCOCC1)c1nc(-c2ccc(-c3ccccn3)s2)cs1 [N-(3-morpholinopropyl)-N-(4-(5-(pyridin-2-yl)thiophen-2-yl)thiazol-2-yl)thiophene-2-carboxamide]
18,AKT1,O=C(c1cccs1)N(CCCN1CCOCC1)c1nc(-c2cc3cc([N+](=O)[O-])ccc3o2)cs1 [N-(3-morpholinopropyl)-N-(4-(5-nitrobenzofuran-2-yl)thiazol-2-yl)thiophene-2-carboxamide]

# Source: patent publication US7795290B2 (Genentech, Inc., priority 2004, dated 2010)
